Paper PMC8647499, “Preclinical evaluation of strasseriolides A–D, potent antiplasmodial macrolides isolated from Strasseria geniculata CF-247,251” (Malaria Journal, 2021)
Where “and” joins values, the source holds several entries; their conditions need not be identical. Equal entries are not always repeated. Where two headings read alike, the source gives them in different places.

Experiments:
[1] = system: transgenic P. berghei line 676m1cl1 (PbGFP-Luccon), ANKA strain; experiment: In vivo efficacy in P. berghei infected mice (luciferase activity); design: species or system Plasmodium berghei in Swiss Webster female mice; settings: chloroquine 20 mg/kg; for Parasitaemia (Luminescence arbitrary units), Average ± SD: 4 days from 48 h post-infection
Experimental: In vivo efficacy experiments were performed at the Anti-infectives Screening Core Services facility of the New York University School of Medicine. The transgenic P. berghei line 676m1cl1 parasite (PbGFP-Luccon) expressing the fusion GFP (mutant 3) and firefly luciferase (LucIAV) proteins generated in the reference clone of ANKA strain cl15cy1 was used. Swiss Webster female mice were infected with transgenic P. berghei line 676m1cl1 (PbGFP-Luccon) ANKA-infected 10³ red blood cells. Treatment was then started 48 h post-parasite infection by i.p. dosage of 22 mg/kg of strasseriolide D and 50 mg/kg of strasseriolide C. Vehicle only (PBS 2% methylcellulose, 0.5% Tween 80) and 20 mg/kg chloroquine were used as negative and positive controls. The infected mice were treated for four days, after which luciferase activity of the parasites was quantified 5 to 10 min after i.p. injection of 150 mg/kg D-Luciferin Potassium-salt (Goldbio) dissolved in PBS using an IVIS® Lumina II imager on the fifth day.
The Genedata Screener online application (Genedata AG, Basel, Switzerland) was used to compute IC50 values. The Smart Fit strategy with Hill model was selected as the choice for curve fitting. Where applicable, data are presented as mean ± standard deviation (SD). In Fig. 3, the significant differences between the vehicle controls and test compounds were calculated by the Student’s t test.

HepG2 liver cells = system: HepG2 liver cells; design: method as in PMID 32808790; settings: cited from earlier work
[2] = Quantification of compounds in mice plasma by LC-MS-MS and PK parameters after i.v. injection; format: in vivo; settings: for Plasma Conc. @Tinitial: mice, Tinitial 0.5 h (A, C), 0.13 h (B), 1.5 h (D)
Experimental: (§1) Three Balb/C mice (6–8 weeks old) were intravenously injected with 25 mg/kg of strasseriolide D dissolved in 200 µL of vehicle (0.5%HPMC, 0.5% Tween 80 and 0.5% Benzyl alcohol in water). Blood samples were collected by pricking the […] on the leg of each mouse at time points 1.5 (T 1.5 h), 5 (T 5 h) and 24 h (T 24 h). From the harvested blood, 50 µL plasma were prepared for all the samples and stored at -80 °C until needed. A previously developed LC–MS–MS method (see supporting information) was used to determine the plasma concentration of strasseriolide D as described below.
Ten millimolar (10 mM) DMSO stocks of strasseriolide D (the test compound) and strasseriolide A (used as internal standard,) were prepared. From the strasseriolide D stock, a 59.7 µM (27,000 ppb) working concentration was made in DMSO and an aliquot of this was serially diluted (½) in reconstitution solution (1:1 of acetonitrile: H2O with 0.1% formic acid) to create a six-point calibration curve in triplicate. Three different quality control (QC) concentrations of strasseriolide D at 59.7, 0.74, and 0.25 µM (i.e. 27,000 ppb, 333 ppb and 111 ppb) were also prepared in duplicate. From the strasseriolide A (internal standard) stock, a 6.2 µM (2700 ppb) working concentration was prepared in DMSO.
Blank mouse plasma (prepared from non-injected mouse) was retrieved from the freezer (− 80 °C) and kept on ice to thaw. The sample was vortexed adequately and 15 µL aliquots transferred into 0.7 mL Eppendorf tubes after which 35 µL of Milli-Q water were added and vortexed. Triplicate sets of the diluted plasma were then respectively spiked with 2 uL of each concentration of the calibration curves of strasseriolide D. Another triplicate set of the diluted plasma was spiked with 2 µL of each concentration of the standard QC solutions. All the above samples were also spiked with 2 µL of strasseriolide A (the internal standard)). To serve as blank samples, a fresh triplicate set of diluted plasma were spiked with 4 µL of DMSO. Non-matrix samples were also prepared by spiking 100 µL aliquots of reconstitution solution with 2 µL of the standard QC solutions and 2 µL of internal standard.
Fifteen microlitres (15 µL) plasma from the various time points of the strasseriolide D-injected mice, were respectively transferred into 0.7 mL Eppendorf tubes. To each sample, 37 µL of Milli-Q water were added, vortexed and spiked with 2 µL of strasseriolide A (internal standard). Two hundred microlitres (200 µL) of ice-cold acetonitrile were added to all of the matrix (plasma-containing) samples and centrifuged at 13,300 rpm for 15 min at 4 °C. Subsequently, 180 µL aliquots were carefully transferred (without disturbing the protein precipitate) from each tube into clean HPLC vials and evaporated to dryness in an EZ2 Genevac at room temperature. The dried samples were then reconstituted in 40 µL of reconstitution solution by vortexing. The samples were placed in an auto-sampler drawer for LC–MS–MS analysis and quantification of strasseriolide D (the test compound) in mice plasma.
(§2) Similar sample preparation and LC–MS–MS analysis were respectively performed for mice intravenously injected with strasseriolides A and C as test compounds and mice blood samples collected at 30 min (T 30 M), 2 h (T 2 h), 6 h (T 6 h) and 24 h (T 24 h). […] For strasseriolides A, B and C as test compounds; strasseriolides C, D and B were respectively used as internal standards. After LC–MS–MS analysis, the plasma concentration of compound vs. time data was determined for each strasseriolide.
116 Table S2. QC table used to calculate the precision and accuracy of the method.
Compound Expected No. Experimental STD % %
conc. in values mean conc. deviation CV Accuracy
118 (5) The mean recovery rate for the test compound (strasseriolide B) – this was calculated
119 to be 29 % by comparing the plasma QC peak area ratios at the established retention time […]

[3] = Metabolic stability assay in human liver microsomes; format: in vitro ADME; settings: for half-life: pH 7.4, 1 mg/mL protein; for Clearance Category: ranked by CLint
Experimental: Pretreatment of the 96-well ABgen-0765 reaction plates was the same as previously described above. Two microlitres (2 µL) of compounds (previously dissolved in DMSO) were pre-incubated with 98 µL of cofactor/buffer solution (0.1 M phosphate buffer of pH 7.4, 100 mM K3PO4, 3.3 mM MgCl2, 3.3 mM G6P, 1.3 mM NADPH, and 0.4 u/mL G6PDH) at 37 °C for 10 min. The reactions were then initiated by the addition of 100 µL of HLM solution (at final protein concentration of 1 mg/mL), after which they were stopped at pre-determined incubation times of 0, 10, 15, 30, 45 and 60 min by adding 90 µL acetonitrile containing internal LC–MS–MS standards and shaking at 180 Hz. The samples were centrifuged to sediment the protein precipitates and the supernatants were analysed by LC–MS–MS as previously described above. The integration of each analyte (the […]) and internal standard peak area was performed by the Analyst® software version 1.5.2 and used to calculate the percentage of remaining compound at each incubation time. The natural logarithm of the percentage of the remaining parent compound was plotted against the incubation time and used to calculate the half-life by the following equation:
Half-life (T ½ min) = 0.693/k, where k is the slope of a plot of the natural log of the percentage parent compound remaining vs. time.
The intrinsic clearance (CLint) was determined by the equation: CLint
=Ln2/t1/2min∗volumeincubationmL/microsomalproteinmg∗45MPPGL1500ghumanliver/70kghumanbodyweightj
Units for CLint were expressed as mL/min/mg microsomal protein and MPPGL = mg microsomal protein per gram liver.

mice = experiment: In vivo toxicity in mice after i.v. injection
Experimental: as §1, §2
Animals were observed individually at 15, 30 and 60 min after dosing and periodically during the first 24 h for any clinical signs of toxicity or mortality. The toxicity evaluation was carried out by observing behaviour parameters, including the Grimace scale parameters. The mice were sacrificed, and the main organs were examined by visual inspection during autopsy.

[4] = system: Plasmodium falciparum strain 3D7 whole parasites; design: method as in PMID 32808790; settings: in vitro, read-out: IC50 against Plasmodium falciparum strain 3D7; cited from earlier work
[5] = Balb/C, mouse, in vivo, iv, 25 mg/kg
[6] = Balb/C, mouse, in vivo, iv, 25 mg/kg, 24 h
[7] = Balb/C, mouse, in vivo, iv, 25 mg/kg, Ave. Conc. in plasma

CCN(CC)CCCC(C)Nc1ccnc2cc(Cl)ccc12 (stereo not drawn) [Chloroquine, chloroquine, reference compound]
Parasitaemia (Luminescence arbitrary units), Average ± SD ([1]; Table S7/Fig. 3A experiment: strasseriolide C 50 mg/kg i.p., read day 5, four replicates): 0.00 Luminescence arbitrary units
Parasitaemia (Luminescence arbitrary units), single replicates ([1]; Table S7 experiment: strasseriolide C 50 mg/kg i.p., individual mice): 0.00 Luminescence arbitrary units
Parasitaemia (Luminescence arbitrary units), Average ± SD ([1]; Table S8/Fig. 3B experiment: strasseriolide D 22 mg/kg i.p., read day 5, five replicates): 3 × 10^3 Luminescence arbitrary units

C/C1=C\[C@H](C)CC[C@@H](O)/C(C)=C/[C@H](C)C[C@@H](C)CC[C@@H]([C@@H](C)C(=O)O)OC(=O)[C@@H](C)C1 [Strasseriolide B, strasseriolide B]
in vitro toxicity against HepG2 liver cells (HepG2 liver cells): no in vitro toxicity
concentration at 8 min ([2]; Balb/C, mouse, in vivo, iv, 25 mg/kg, i.v. 25 mg/kg, T 8 minutes, read-out: Ave. Conc. in plasma): 19600 nM
concentration at 8 min ([2]; Balb/C, mouse, in vivo, iv, 25 mg/kg, i.v. 25 mg/kg, T 8 minutes, read-out: Calc. Conc. in plasma, individual mice): 8110 ng/mL and 18.6 µM
Calc. Conc. in plasma, individual mice ([2]; i.v. 25 mg/kg, T 8 minutes): 9098.0 ng/mL
Calc. Conc. in plasma, individual mice ([2]; i.v. 25 mg/kg, T 8 minutes, listed as strasseriolide B): 8419.0 ng/mL
concentration at 8 min ([2]; i.v. 25 mg/kg, T 8 minutes, listed as strasseriolide B, read-out: Calc. Conc. in plasma, individual mice): 19300 nM
concentration at 8 min ([2]; i.v. 25 mg/kg, T 8 minutes, read-out: Calc. Conc. in plasma, individual mice): 20900 nM
Plasma Conc. @Tinitial ([2]; i.v. 25 mg/kg): 19600 nM
Plasma Conc. @Tinitial ([2]; i.v. 25 mg/kg, listed as B*): 19600 ± 1200 nM
half-life [3]: 8.7 ± 2.4 min
Clearance Category [3]: High
time to death of all injected mice (mice; i.v. 25 mg/kg): *Only Tinitial and the Plasma Conc @ Tinitial were recorded as all the mice injected with this compound died under 8 min
in vivo toxicity / mortality in mice (mice; i.v. 25 mg/kg, three mice, observed 24 h): all died just under eight minutes post-i.v. injection
in vivo toxicity / mortality in mice at lower dosages (mice; i.v. 10, 5 and 1 mg/Kg): all resulted in death of the mice injected
IC50 [4]: 0.013 µM

C/C1=C\[C@H](C)CCC(=O)/C(C)=C/[C@H](C)C[C@@H](C)CC[C@@H]([C@@H](C)C(=O)O)OC(=O)[C@@H](C)C1 [Strasseriolide A, strasseriolide A]
AUC 0-t/0-inf_obs [2, 5]: 0.9738
AUC(0-inf) [2, 5]: 510 ng·h/mL and 1.17 µM·h
C0 [2, 5]: 378 ng/mL and 870 nM
Clast_obs/Cmax [2, 5]: 0.009713
Cmax [2, 5]: 216 ng/mL and 498 nM
MRT [2, 5]: 2.98 h
MRT inf [2, 5]: 2.99 h
Tmax [2, 5]: 0.5 h
Vss_obs [2, 5]: 0.1465 (mg/kg)/(ng/ml)
Vz_obs (plasma distribution volume) [2, 5]: 312.4 L/kg
k el [2, 5]: 4.36e-05 s⁻¹
Calc. Conc. in plasma, individual mice [2, 6]: < 2.1 ng/mL
Plasma Conc. @T24 h [2, 6]: <4.8 nM
concentration at 8 min ([2]; Balb/C, mouse, in vivo, iv, 25 mg/kg, 24 h, read-out: Calc. Conc. in plasma, individual mice): < 4.84 nM
AUC(0-t) ([2]; Balb/C, mouse, in vivo, iv, 25 mg/kg, AUC 0-t): 1.14 µM·h and 496 ng·h/mL
AUC(0-t) ([2]; Balb/C, mouse, in vivo, iv, 25 mg/kg, AUC0−t): 1.14 µM·h
concentration at 0.5 h [2, 7]: 498 nM
concentration at 2 h [2, 7]: 93.5 nM
concentration at 6 h [2, 7]: 11.6 nM
concentration at 24 h [2, 7]: < 4.84 nM
concentration at 24 h ([2]; Balb/C, mouse, in vivo, iv, 25 mg/kg, Calc. Conc. in plasma, individual mice): < 2.1 ng/mL and < 4.84 nM
concentration at 24 h ([2]; Balb/C, mouse, in vivo, iv, 25 mg/kg, Plasma Conc. @T24 h): < 4.8 nM
half-life ([2]; Balb/C, mouse, in vivo, iv, 25 mg/kg, T1/2 (apparent terminal elimination half-life)): 4.4 h
half-life ([2]; Balb/C, mouse, in vivo, iv, 25 mg/kg, t1/2): 4.41 h
Cl_obs ([2]; mouse, in vivo, iv, 25 mg/kg): 0.04907 (mg/kg)/(ng/ml)/h
half-life [3]: 6.47 ± 1.05 min
Clearance Category [3]: High
in vivo toxicity / mortality in mice (mice; [6]): survived until 24 h post-i.v. injection
in vivo toxicity / mortality in mice (mice; mouse, in vivo, iv, 25 mg/kg): non-toxic
IC50 [4]: 9.81 µM
